We go through one compound from US12012404B2, “Pyrimidoheterocyclic compounds and application thereof” (D3 BIO (WUXI) CO., LTD., priority 2020, dated 2024).

A word on the IC50: it is the concentration that gives 50% inhibition. High values mean weaker potency in that assay, low ones greater potency in that assay.

Data set [1] deals with KRAS^G12C-mutated MIA-PA-CA-2 cells. The data set is described as follows: Inhibition of proliferation of KRAS^G12C-mutated MIA-PA-CA-2 cells (CellTiter-Glo, 72 h). The data set is classed as cell-based, human. The following applies: Homo sapiens, MIA PaCa-2, 72 h incubation. How it is done: Compounds were assayed for IC50 of inhibition of proliferation of KRAS^G12C-mutated MIA-PA-CA-2 cells.
The main reagent used in this assay included CellTiter-Glo (Promega, Cat. No. G7573).
The main instrument used in this assay was PerkinElmer EnVision multi-function microplate reader.
1.4 Method of the Assay • 1) Adherent cells were digested with trypsin to form a cell suspension, and the cell suspension was counted for later use. • 2) An appropriate amount of cells was added into a centrifuge tube, and a cell culture medium was added to make up the required volume; then the cells were plated to a 96-well plate at a final density of 2000 cells/well, 100 μL of culture medium. • 3) After incubating for 24 hr, the compound was formulated to 10 mM with DMSO, and serially diluted 3-fold with DPBS (Dulbecco's Phosphate Buffered Saline) to 9 points; 10 μL was added to each well in duplicate. 10 μL of DPBS per well was added to the assay control wells (Con). • 4) On the same day, 50 μL of CellTiter Glo was added to another cell culture plate without compounds, and the fluorescence value was read by EnVision. […] The fluorescence value was read by EnVision. • 6) Data analysis: The inhibition rate of cells in each well was calculated according to the following equation: […]
(ATP-based viability assays read luminescence as a measure of living cells.)

Data set [2] has as its system KRAS^G12C-mutated H358 cells. Put plainly: H358 cell assay: inhibition of proliferation (CellTiter-Glo, 5 days). The format is cell-based. As to conditions: Homo sapiens, 120 h; NCI-H358 cells, 5 days incubation. How it is done: Compounds were assayed for IC50 of inhibition of proliferation of KRAS^G12C-mutated H358 cells.
The main instrument used in this assay was a Nivo multi-label analyzer (PerkinElmer).
2.4 Method of the Assay: • 1) NCI-H358 cells were inoculated in a white 96-well plate, and each well contained 80 μL of cell suspension and 4000 NCI-H358 cells. […] The assay was carried out in duplicate. 78 μL of medium was added to the intermediate plate, and then 2 μL of the serially diluted compound was transferred to each well of the intermediate plate according to the corresponding position. After mixing well, 20 μL per well was transferred to the cell plate. […] The cell plate was incubated in a carbon dioxide incubator for 5 days. Another cell plate was prepared, and the signal value of the cell plate was read on the day of compound addition as the maximum value (Max value in the equation below) to participate in data analysis. 25 μL of cell viability chemiluminescence detection reagent was added to each well of the cell plate, and the plate was incubated at room temperature for 10 minutes to stabilize the luminescence signal. A multi-label analyzer was used for reading the plate. • 3) […]

Data set [3] in a line: Protein binding rate by equilibrium dialysis, CD-1 mice plasma. The format is in vitro ADME. The following applies: CD-1, mouse, plasma; mice, as listed in PK Table 9; read-out: Plasma protein unbound rate PPB (Unbound %). How it is done:
(§1) Purpose of the assay: Protein binding rate of the assay compounds in plasma of CD-1 mice, SD rats, beagle dogs, cynomolgus monkeys and human was determined by equilibrium dialysis.
(§2) Procedure of the assay: Plasma samples with a compound concentration of 2 μM were prepared using plasma of the above five species, placed in a 96-well equilibrium dialysis device, and dialyzed with phosphate buffer solution at 37±1° C. for 4 hours. Warfarin was used as the control compound in this assay. The concentrations of the assay compounds in plasma and dialysis buffer were determined by LC-MS/MS method.

Data set [4] in a line: Protein binding rate by equilibrium dialysis, SD rats plasma. The data set is classed as in vitro ADME. The following applies: rat, plasma; SD rats, as listed in PK Table 8; read-out: Plasma protein unbound rate PPB (Unbound %). As to the method:
as §1, §2
On the technique in general: Equilibrium dialysis compares concentrations on both sides of a semipermeable membrane.

For `C=C(F)C(=O)N1CCN(c2nc(OC[C@@]34CCCN3C[C@H](F)C4)nc3c2COC(c2c(F)c(N)cc(C)c2C(F)(F)F)C3)C[C@@H]1CC#N` (stereo partly shown) [Compound 17], the results for the IC50 in data set [1] and in data set [2] were 0.44 nM and 0.6 nM, respectively. The fraction unbound at 4 h, 2 μM in data set [3] was found to be 0.0154; in data set [4] it was 0.048.
